Source: patent publication US20240124427A1, “HYDROXYHETEROCYCLOALKANE-CARBAMOYL DERIVATIVES” (Idorsia Pharmaceuticals Ltd, priority 2021, published 2024)

Target: human Gal-3 (hGal-3) (Homo sapiens (Human), UniProt P17931)
Experiment: Competitive binding assay: biotinylated hGal-3 binding to microplate-adsorbed asialofetuin (ASF)
Details: Activity on hGal-3; mean values of several measurements; mixture of diastereomers measured where not separated
Description: The inhibitory activity of compounds is determined in competitive binding assays. This spectrophotometric assay measures the binding of biotinylated human Gal-3 (hGal-3) or human Gal-1 (hGal-1), respectively, to a microplate-adsorbed glycoprotein, asialofetuin (ASF) (Proc Natl Acad Sci USA. 2013 Mar 26;110(13):5052-7.). Alternatively, and preferably, a human Gal-1 version in which all six cysteines are substituted by serines may be used.
Briefly, compounds are serially diluted in DMSO (working dilutions).
Plates are incubated for 3 hours at 4° C., then washed with cold assay buffer (3×50 uL), incubated for 1 hour with 25 μL/well of a streptavidin-peroxidase solution (diluted in assay buffer to 80 ng/mL) at 4° C., followed by further washing steps with assay buffer (3×50 uL). Finally, 25 μL/well of ABTS substrate is added.
The calculated IC50 values may fluctuate depending on the daily assay performance. Fluctuations of this kind are known to those skilled in the art. IC50 values from several measurements are given as mean values.

Chain of human Gal-3 (hGal-3) (P17931 whole entry): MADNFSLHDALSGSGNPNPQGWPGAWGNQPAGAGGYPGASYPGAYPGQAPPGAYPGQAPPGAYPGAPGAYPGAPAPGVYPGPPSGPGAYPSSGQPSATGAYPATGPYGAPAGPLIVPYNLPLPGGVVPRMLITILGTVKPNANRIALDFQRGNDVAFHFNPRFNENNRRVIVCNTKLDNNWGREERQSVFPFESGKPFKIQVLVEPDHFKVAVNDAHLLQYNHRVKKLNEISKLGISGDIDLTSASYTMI

`CO[C@@H]1[C@@H](n2cc(-c3cc(F)c(F)c(F)c3)nn2)[C@@H](O)[C@@H](CO)O[C@H]1C(=O)N(c1cccc(Cl)c1)[C@H]1COC[C@@H]1O` [Example 1, (2R,3R,4S,5R,6R)-N-(3-chlorophenyl)-5-hydroxy-6-(hydroxymethyl)-N-((3S,4R)-4-hydroxytetrahydrofuran-3-yl)-3-methoxy-4-(4-(3,4,5-trifluorophenyl)-1H-1,2,3-triazol-1-yl)tetrahydro-2H-pyran-2-carboxamide] and `CO[C@@H]1[C@@H](n2cc(-c3cc(F)c(F)c(F)c3)nn2)[C@@H](O)[C@@H](CO)O[C@H]1C(=O)N(c1cccc(Br)c1)[C@H]1COC[C@@H]1O` [Example 2, (2R,3R,4S,5R,6R)-N-(3-bromophenyl)-5-hydroxy-6-(hydroxymethyl)-N-((3S,4R)-4-hydroxytetrahydrofuran-3-yl)-3-methoxy-4-(4-(3,4,5-trifluorophenyl)-1H-1,2,3-triazol-1-yl)tetrahydro-2H-pyran-2-carboxamide] are within 1.5-fold of each other in IC50: 102 nM for the first, 80 nM for the second.

`CO[C@@H]1[C@@H](n2cc(-c3cc(F)c(F)c(F)c3)nn2)[C@@H](O)[C@@H](CO)O[C@H]1C(=O)N(c1cccc(I)c1)[C@H]1COC[C@@H]1O` [Example 3, (2R,3R,4S,5R,6R)-5-hydroxy-6-(hydroxymethyl)-N-((3S,4R)-4-hydroxytetrahydrofuran-3-yl)-N-(3-iodophenyl)-3-methoxy-4-(4-(3,4,5-trifluorophenyl)-1H-1,2,3-triazol-1-yl)tetrahydro-2H-pyran-2-carboxamide] and `CO[C@@H]1[C@@H](n2cc(-c3cc(F)c(F)c(F)c3)nn2)[C@@H](O)[C@@H](CO)O[C@H]1C(=O)N(c1cc(Br)cc(Br)c1)[C@H]1COC[C@@H]1O` [Example 6, (2R,3R,4S,5R,6R)-N-(3,5-dibromophenyl)-5-hydroxy-6-(hydroxymethyl)-N-((3S,4R)-4-hydroxytetrahydrofuran-3-yl)-3-methoxy-4-(4-(3,4,5-trifluorophenyl)-1H-1,2,3-triazol-1-yl)tetrahydro-2H-pyran-2-carboxamide] are within 1.5-fold of each other in IC50: 56 nM for the first, 53 nM for the second.

Going from `CO[C@@H]1[C@@H](n2cc(-c3cc(F)c(F)c(F)c3)nn2)[C@@H](O)[C@@H](CO)O[C@H]1C(=O)N(c1cc(Cl)cc(C#N)c1)[C@H]1COC[C@@H]1O` [Example 5, (2R,3R,4S,5R,6R)-N-(3-chloro-5-cyanophenyl)-5-hydroxy-6-(hydroxymethyl)-N-((3S,4R)-4-hydroxytetrahydrofuran-3-yl)-3-methoxy-4-(4-(3,4,5-trifluorophenyl)-1H-1,2,3-triazol-1-yl)tetrahydro-2H-pyran-2-carboxamide] to `CO[C@@H]1[C@@H](n2cc(-c3cc(F)c(F)c(F)c3)nn2)[C@@H](O)[C@@H](CO)O[C@H]1C(=O)N(c1cc(C)cc(C#N)c1)[C@H]1COC[C@@H]1O` [Example 10, (2R,3R,4S,5R,6R)-N-(3-cyano-5-methylphenyl)-5-hydroxy-6-(hydroxymethyl)-N-((3S,4R)-4-hydroxytetrahydrofuran-3-yl)-3-methoxy-4-(4-(3,4,5-trifluorophenyl)-1H-1,2,3-triazol-1-yl)tetrahydro-2H-pyran-2-carboxamide], the IC50 rises from 69 nM to 136 nM (2-fold). The first is the more potent here.

`CO[C@@H]1[C@@H](n2cc(-c3cc(F)c(F)c(F)c3)nn2)[C@@H](O)[C@@H](CO)O[C@H]1C(=O)N(c1cc(C)cc(Br)c1)[C@H]1COC[C@@H]1O` [Example 8, (2R,3R,4S,5R,6R)-N-(3-bromo-5-methylphenyl)-5-hydroxy-6-(hydroxymethyl)-N-((3S,4R)-4-hydroxytetrahydrofuran-3-yl)-3-methoxy-4-(4-(3,4,5-trifluorophenyl)-1H-1,2,3-triazol-1-yl)tetrahydro-2H-pyran-2-carboxamide] and `CO[C@@H]1[C@@H](n2cc(-c3cc(F)c(C)c(F)c3)nn2)[C@@H](O)[C@@H](CO)O[C@H]1C(=O)N(c1cc(C)cc(Br)c1)[C@H]1COC[C@@H]1O` [Example 18, (2R,3R,4S,5R,6R)-N-(3-bromo-5-methylphenyl)-4-(4-(3,5-difluoro-4-methylphenyl)-1H-1,2,3-triazol-1-yl)-5-hydroxy-6-(hydroxymethyl)-N-((3S,4R)-4-hydroxytetrahydrofuran-3-yl)-3-methoxytetrahydro-2H-pyran-2-carboxamide] are within 1.5-fold of each other in IC50: 77 nM for the first, 69 nM for the second.

`COc1cc(C#N)cc(N(C(=O)[C@@H]2O[C@H](CO)[C@H](O)[C@H](n3cc(-c4cc(F)c(F)c(F)c4)nn3)[C@H]2OC)[C@H]2COC[C@@H]2O)c1` [Example 9, (2R,3R,4S,5R,6R)-N-(3-cyano-5-methoxyphenyl)-5-hydroxy-6-(hydroxymethyl)-N-((3S,4R)-4-hydroxytetrahydrofuran-3-yl)-3-methoxy-4-(4-(3,4,5-trifluorophenyl)-1H-1,2,3-triazol-1-yl)tetrahydro-2H-pyran-2-carboxamide] and `CO[C@@H]1[C@@H](n2cc(-c3cc(F)c(F)c(F)c3)nn2)[C@@H](O)[C@@H](CO)O[C@H]1C(=O)N(c1cc(F)cc(C#N)c1)[C@H]1COC[C@@H]1O` [Example 11, (2R,3R,4S,5R,6R)-N-(3-cyano-5-fluorophenyl)-5-hydroxy-6-(hydroxymethyl)-N-((3S,4R)-4-hydroxytetrahydrofuran-3-yl)-3-methoxy-4-(4-(3,4,5-trifluorophenyl)-1H-1,2,3-triazol-1-yl)tetrahydro-2H-pyran-2-carboxamide] are within 1.5-fold of each other in IC50: 101 nM for the first, 124 nM for the second.

`CO[C@@H]1[C@@H](n2cc(-c3ccc(Br)c(F)c3F)nn2)[C@@H](O)[C@@H](CO)O[C@H]1C(=O)N(c1cc(Cl)cc(Cl)c1)[C@H]1COC[C@@H]1O` [Example 12, (2R,3R,4S,5R,6R)-4-(4-(4-bromo-2,3-difluorophenyl)-1H-1,2,3-triazol-1-yl)-N-(3,5-dichlorophenyl)-5-hydroxy-6-(hydroxymethyl)-N-((3S,4R)-4-hydroxytetrahydrofuran-3-yl)-3-methoxytetrahydro-2H-pyran-2-carboxamide] and `CO[C@@H]1[C@@H](n2cc(-c3ccc(C)c(F)c3F)nn2)[C@@H](O)[C@@H](CO)O[C@H]1C(=O)N(c1cc(Cl)cc(Cl)c1)[C@H]1COC[C@@H]1O` [Example 19, (2R,3R,4S,5R,6R)-N-(3,5-dichlorophenyl)-4-(4-(2,3-difluoro-4-methylphenyl)-1H-1,2,3-triazol-1-yl)-5-hydroxy-6-(hydroxymethyl)-N-((3S,4R)-4-hydroxytetrahydrofuran-3-yl)-3-methoxytetrahydro-2H-pyran-2-carboxamide] are within 1.5-fold of each other in IC50: 47 nM for the first, 40 nM for the second.

First: CO[C@@H]1[C@@H](n2cc(-c3ccc(Br)c(F)c3F)nn2)[C@@H](O)[C@@H](CO)O[C@H]1C(=O)N(c1cc(Br)cc(C#N)c1)[C@H]1COC[C@@H]1O [Example 13, (2R,3R,4S,5R,6R)-4-(4-(4-bromo-2,3-difluorophenyl)-1H-1,2,3-triazol-1-yl)-N-(3-bromo-5-cyanophenyl)-5-hydroxy-6-(hydroxymethyl)-N-((3S,4R)-4-hydroxytetrahydrofuran-3-yl)-3-methoxytetrahydro-2H-pyran-2-carboxamide]
Second: CO[C@@H]1[C@@H](n2cc(-c3ccc(C)c(F)c3F)nn2)[C@@H](O)[C@@H](CO)O[C@H]1C(=O)N(c1cc(Br)cc(C#N)c1)[C@H]1COC[C@@H]1O [Example 20, (2R,3R,4S,5R,6R)-N-(3-bromo-5-cyanophenyl)-4-(4-(2,3-difluoro-4-methylphenyl)-1H-1,2,3-triazol-1-yl)-5-hydroxy-6-(hydroxymethyl)-N-((3S,4R)-4-hydroxytetrahydrofuran-3-yl)-3-methoxytetrahydro-2H-pyran-2-carboxamide]
The IC50 of the first is 2.1-fold lower: 15 nM for the first, 31 nM for the second. The first is the more potent here.

`CO[C@@H]1[C@@H](n2cc(-c3ccc(Br)c(F)c3F)nn2)[C@@H](O)[C@@H](CO)O[C@H]1C(=O)N(c1cc(C)cc(Br)c1)[C@H]1COC[C@@H]1O` [Example 14, (2R,3R,4S,5R,6R)-4-(4-(4-bromo-2,3-difluorophenyl)-1H-1,2,3-triazol-1-yl)-N-(3-bromo-5-methylphenyl)-5-hydroxy-6-(hydroxymethyl)-N-((3S,4R)-4-hydroxytetrahydrofuran-3-yl)-3-methoxytetrahydro-2H-pyran-2-carboxamide] and `CO[C@@H]1[C@@H](n2cc(-c3cc(F)c(C)c(F)c3)nn2)[C@@H](O)[C@@H](CO)O[C@H]1C(=O)N(c1cc(Br)cc(Br)c1)[C@H]1COC[C@@H]1O` [Example 16, (2R,3R,4S,5R,6R)-N-(3,5-dibromophenyl)-4-(4-(3,5-difluoro-4-methylphenyl)-1H-1,2,3-triazol-1-yl)-5-hydroxy-6-(hydroxymethyl)-N-((3S,4R)-4-hydroxytetrahydrofuran-3-yl)-3-methoxytetrahydro-2H-pyran-2-carboxamide] are within 1.5-fold of each other in IC50: 46 nM for the first, 61 nM for the second.

First: CO[C@@H]1[C@@H](n2cc(-c3cc(F)c(C)c(F)c3)nn2)[C@@H](O)[C@@H](CO)O[C@H]1C(=O)N(c1cc(Cl)cc(Cl)c1)[C@H]1COC[C@@H]1O [Example 15, (2R,3R,4S,5R,6R)-N-(3,5-dichlorophenyl)-4-(4-(3,5-difluoro-4-methylphenyl)-1H-1,2,3-triazol-1-yl)-5-hydroxy-6-(hydroxymethyl)-N-((3S,4R)-4-hydroxytetrahydrofuran-3-yl)-3-methoxytetrahydro-2H-pyran-2-carboxamide]
Second: CO[C@@H]1[C@@H](n2cc(-c3cc(F)c(C)c(F)c3)nn2)[C@@H](O)[C@@H](CO)O[C@H]1C(=O)N(c1cc(Br)cc(C#N)c1)[C@H]1COC[C@@H]1O [Example 17, (2R,3R,4S,5R,6R)-N-(3-bromo-5-cyanophenyl)-4-(4-(3,5-difluoro-4-methylphenyl)-1H-1,2,3-triazol-1-yl)-5-hydroxy-6-(hydroxymethyl)-N-((3S,4R)-4-hydroxytetrahydrofuran-3-yl)-3-methoxytetrahydro-2H-pyran-2-carboxamide]
The IC50 of the first is 1.7-fold lower: 38 nM for the first, 66 nM for the second.
